Like-named read-outs stand apart in the source and are kept apart here.
What was measured:
[1] = tested on: T-Rex 293 cell line SC3 cells lacking increased expression of androgen receptor protein; experiment: Cellular growth inhibition assay, T-Rex 293 SC3 cells without doxycycline (CellTiter-Glo, 72 hours); type: cell-based; conditions: T-Rex 293 cell line SC3 cells not exposed to doxycycline (lacking increased androgen receptor expression)
Method: (§1) The following types of cells were prepared for this experiment: (i) a T-Rex 293 cell line having increased expression of androgen receptor protein due to exposure to doxycycline and (ii) a T-Rex 293 cell line lacking increased expression of androgen receptor protein. Ability of the test compounds to inhibit proliferation of the foregoing cell types was evaluated according to the procedures set forth below.
(§2) The doxycycline-inducible androgen receptor protein expressing cell line was established using the following protocol: T-Rex 293 cells were purchased from Invitrogen (Cat #R71007) and transfected using Lipofectamine 2000 with the wild-type androgen receptor protein sequence cloned into the pcDNA4/TO vector. Transfected cells were selected using 400 μg/mL Zeocin (Invitrogen Cat #R25001). Following selection, single clones were raised and maintained in Dulbecco's Modified Eagle Medium (DMEM) supplemented with 10% w/w Tetracycline-free fetal bovine serum (FBS) and 250 μg/mL Zeocin. Clones were analyzed for expression of androgen receptor protein in the presence and absence of 10 ng/mL doxycycline (Sigma Cat #D9891), and a single doxycycline-inducible clone (hereinafter “SC3”) was selected for use in downstream assays.
(§3) The SC3 cells were seeded on poly-D-lysine coated, black clear-bottom 384-well plates at 2500/well, in 25 μL Phenol Red Free Dulbecco's Modified Eagle Medium (DMEM) supplemented with 10% w/w charcoal-dextran treated fetal bovine serum (FBS) and 1% w/w pen-strep, with or without 10 ng/mL doxycycline. Pen-Strep is a commercially available mixture of penicillin G and streptomycin, which is used in mammalian cell culture media to prevent bacterial contamination. Phenol Red Free Dulbecco's Modified Eagle Medium (DMEM) supplemented with 10% w/w charcoal-dextran treated fetal bovine serum (FBS) and 1% w/w pen-strep, with or without 10 ng/mL doxycycline is herein referred to as Treatment Medium. Following seeding of cells in the plates, the plates were spun at 300×g for 30 seconds, then equilibrated to room temperature for 30 minutes, and then deposited in a humidified tissue culture incubator maintained at 37° C. with 5% CO2.
(§4) At 24 hours after seeding of the cells, dilutions of test compound were prepared in DMSO and dissolved in Treatment Medium, to achieve a final DMSO concentration of 0.5% w/w, thereby providing the Test Compound Solution. A 25 μL aliquot of the Test Compound Solution was added to cells in the well plates. An equal volume of a solution containing DMSO and Treatment Medium was used as a negative control. Following treatment of cells with Test Compound Solution or said equal volume of a solution containing DMSO and Treatment Medium, the plates were spun at 300×g for 30 seconds, and then left in an incubator for 72 hours.
(§5) At the end of the treatment duration, cell viability was quantified with CellTiter-Glo 2.0 reagent (Promega Cat #G9243). For this purpose, plates were equilibrated to room temperature for 30 minutes, and then 25 μL of CellTiter-Glo 2.0 reagent was added to cells in the plate wells. Plates were then agitated on a shaker for two minutes at 500 rpm and subsequently incubated at room temperature for 10 minutes. Following incubation, the plates were spun at 3000×g for 30 seconds, then sealed with an optical adhesive cover, and luminescence readings were measured with an EnVision Plate Reader.
(§6) Data was normalized using zero luminescence for baseline. A four-parameter non-linear regression curve fit was applied to dose-response data in GraphPad Prism data analysis software to determine the half-maximal growth inhibitory concentration (GI50) for each test compound.

[2] = tested on: T-Rex 293 cell line SC3 cells having increased expression of androgen receptor protein due to exposure to doxycycline; experiment: Cellular growth inhibition assay, T-Rex 293 SC3 cells with doxycycline (CellTiter-Glo, 72 hours); type: cell-based; conditions: T-Rex 293 SC3 cells with increased androgen receptor expression due to doxycycline (10 ng/mL)
Method: as §1, §2, §3, §4, §5, §6

VCaP cells = experiment: Cellular growth inhibition assay for VCaP cells (CellTiter-Glo, 72 hours); type: cell-based, human
Method: VCaP cells were purchased from American Type Cell Culture (ATCC Cat #CRL2876) and then seeded on poly-D-lysine coated, black clear-bottom 384-well plates at 5000/well in 25 μL Dulbecco's Modified Eagle Medium (DMEM) supplemented with 10% w/w Fetal bovine serum (FBS) and 1% w/w Pen-Strep. Pen-Strep is a commercially available mixture of penicillin G and streptomycin, which is used in mammalian cell culture media to prevent bacterial contamination. Dulbecco's Modified Eagle Medium (DMEM) supplemented with 10% w/w fetal bovine serum (FBS) and 1% w/w Pen-Strep is herein referred to as Treatment Medium. Following seeding of cells in the plates, the plates were spun at 300×g for 30 seconds, then equilibrated to room temperature for 30 minutes, and then deposited in a humidified tissue culture incubator maintained at 37° C. with 5% C0-2.
as §4, §5, §6

Compound	GI50 ([1]; 72 h)	GI50 ([2]; 72 h)	GI50 (VCaP cells; Homo sapiens, VCaP, 72 h)	GI50 [2]	GI50 (VCaP cells)	GI50 [1]
CCNC(=O)C[C@@H]1N=C(c2ccc(OCCCOC3CCN(c4ccc(C(=O)N[C@H]5CC[C@H](Oc6ccc(C#N)c(Cl)c6)CC5)nn4)CC3)cc2)c2c(sc(C)c2C)-n2c(C)nnc21 [I-14]	< 500 nM	< 500 nM	< 500 nM	–	–	–
CCNC(=O)C[C@@H]1N=C(c2ccc(CCCCCCOC3CCN(c4ccc(C(=O)N[C@H]5CC[C@H](Oc6ccc(C#N)c(Cl)c6)CC5)nn4)CC3)cc2)c2c(sc(C)c2C)-n2c(C)nnc21 [I-22]	500 to 1500 nM	< 500 nM	500 to 1500 nM	–	–	–
CCNC(=O)C[C@@H]1N=C(c2cccc(OCCOCCOC3CCN(c4ccc(C(=O)N[C@H]5CC[C@H](Oc6ccc(C#N)c(Cl)c6)CC5)nn4)CC3)c2)c2c(sc(C)c2C)-n2c(C)nnc21 [I-23]	1500 to 3000 nM	< 500 nM	> 3000 nM	–	–	–
CCNC(=O)C[C@@H]1N=C(c2ccc(OC3CN(CC4CCN(c5ccc(C(=O)N[C@H]6CC[C@H](Oc7ccc(C#N)c(Cl)c7)CC6)nn5)CC4)C3)cc2)c2c(sc(C)c2C)-n2c(C)nnc21 [I-45]	500 to 1500 nM	< 500 nM	500 to 1500 nM	–	–	–
CCNC(=O)C[C@@H]1N=C(c2ccc(OC3CC(N(C)C4CCN(c5ccc(C(=O)N[C@H]6CC[C@H](Oc7ccc(C#N)c(Cl)c7)CC6)nn5)CC4)C3)cc2)c2c(sc(C)c2C)-n2c(C)nnc21 (stereo partly drawn) [I-46]	500 to 1500 nM	< 500 nM	< 500 nM	–	–	–
CCNC(=O)C[C@@H]1N=C(c2ccc(N3CC(N(C4CC4)C4CN(c5ccc(C(=O)N[C@H]6CC[C@H](Oc7ccc(C#N)c(Cl)c7)CC6)nn5)C4)C3)cc2)c2c(sc(C)c2C)-n2c(C)nnc21 [I-56]	< 500 nM	< 500 nM	< 500 nM	–	–	–
CCNC(=O)C[C@@H]1N=C(c2ccc(N3CC(OC4CCN(c5ccc(C(=O)N[C@H]6CC[C@H](Oc7ccc(C#N)c(Cl)c7)CC6)nn5)CC4)C3)cc2)c2c(sc(C)c2C)-n2c(C)nnc21 [I-57]	< 500 nM	< 500 nM	< 500 nM	–	–	–
CCNC(=O)C[C@@H]1N=C(c2ccc(N3CCC(OC4CN(c5ccc(C(=O)N[C@H]6CC[C@H](Oc7ccc(C#N)c(Cl)c7)CC6)nn5)C4)CC3)cc2)c2c(sc(C)c2C)-n2c(C)nnc21 [I-58]	500 to 1500 nM	< 500 nM	< 500 nM	–	–	–
CCNC(=O)C[C@@H]1N=C(c2ccc(N3CC(N(C)C4CN(c5ccc(C(=O)N[C@H]6CC[C@H](Oc7ccc(C#N)c(Cl)c7)CC6)nn5)C4)C3)cc2)c2c(sc(C)c2C)-n2c(C)nnc21 [I-61]	> 3000 nM	< 500 nM	< 500 nM	–	–	–
CCNC(=O)C[C@@H]1N=C(c2ccc(N3CC(N(C)C4CCN(c5ccc(C(=O)N[C@H]6CC[C@H](Oc7ccc(C#N)c(Cl)c7)CC6)nn5)CC4)C3)cc2)c2c(sc(C)c2C)-n2c(C)nnc21 [I-62]	> 3000 nM	< 500 nM	< 500 nM	–	–	–
CCNC(=O)C[C@@H]1N=C(c2ccc(N3CC(N(C(C)C)C4CN(c5ccc(C(=O)N[C@H]6CC[C@H](Oc7ccc(C#N)c(Cl)c7)CC6)nn5)C4)C3)cc2)c2c(sc(C)c2C)-n2c(C)nnc21 [I-64]	500 to 1500 nM	< 500 nM	< 500 nM	–	–	–
CCNC(=O)C[C@@H]1N=C(c2ccc(N(C)C3CN(c4ccc(C(=O)N[C@H]5CC[C@H](Oc6ccc(C#N)c(Cl)c6)CC5)nn4)C3)cc2)c2c(sc(C)c2C)-n2c(C)nnc21 [I-65]	500 to 1500 nM	< 500 nM	500 to 1500 nM	–	–	–
CCNC(=O)C[C@@H]1N=C(c2ccc(N3CC(CC4CN(c5ccc(C(=O)N[C@H]6CC[C@H](Oc7ccc(C#N)c(Cl)c7)CC6)nn5)C4)C3)cc2)c2c(sc(C)c2C)-n2c(C)nnc21 [I-66]	500 to 1500 nM	< 500 nM	< 500 nM	–	–	–
CCNC(=O)C[C@@H]1N=C(c2ccc(N(C)C3CC(OC4CCN(c5ncc(C(=O)N[C@H]6CC[C@H](Oc7ccc(C#N)c(Cl)c7)CC6)cn5)CC4)C3)cc2)c2c(sc(C)c2C)-n2c(C)nnc21 (stereo partly drawn) [I-69]	500 to 1500 nM	< 500 nM	< 500 nM	–	–	–
CCNC(=O)C[C@@H]1N=C(c2ccc(N3CC(OC4CN(c5ccc(C(=O)N[C@H]6CC[C@H](Oc7ccc(C#N)c(Cl)c7)CC6)nn5)C4)C3)cc2)c2c(sc(C)c2C)-n2c(C)nnc21 [I-70]	500 to 1500 nM	< 500 nM	< 500 nM	–	–	–
Cc1sc2c(c1C)C(c1ccc(OC3CC4(CCN(c5ccc(C(=O)N[C@H]6CC[C@H](Oc7ccc(C#N)c(Cl)c7)CC6)nn5)CC4)C3)nc1)=NC1(CC1)c1nnc(C)n1-2 [I-443]	> 3000 nM	< 500 nM	< 500 nM	–	–	–
Cc1sc2c(c1C)C(c1ccc(CC3CC4(CCN(c5ccc(C(=O)N[C@H]6CC[C@H](Oc7ccc(C#N)c(Cl)c7)CC6)nn5)CC4)C3)cc1)=NC1(CC1)c1nnc(C)n1-2 [I-444]	> 3000 nM	< 500 nM	< 500 nM	–	–	–
Cc1sc2c(c1C)C(c1ccc(OCC3CC4(CCCN(c5ccc(C(=O)N[C@H]6CC[C@H](Oc7ccc(C#N)c(Cl)c7)CC6)nn5)C4)C3)cc1)=NCc1nnc(C)n1-2 (stereo partly drawn) [I-446]	> 3000 nM	–	–	< 500 nM	< 500 nM	–
Cc1sc2c(c1C)C(c1ccc(OCC3CC4(CCCN(c5ccc(C(=O)N[C@H]6CC[C@H](Oc7ccc(C#N)c(Cl)c7)CC6)nn5)C4)C3)cc1)=NCc1nnc(C)n1-2 (stereo partly drawn) [I-447]	–	–	–	< 500 nM	> 3000 nM	> 3000 nM
Cc1sc2c(c1C)C(c1ccc(N3CCC4(CCCN(c5ccc(C(=O)N[C@H]6CC[C@H](Oc7ccc(C#N)c(Cl)c7)CC6)nn5)C4)CC3)nc1)=NC1(CC1)c1nnc(C)n1-2 [I-448]	> 3000 nM	< 500 nM	1500 to 3000 nM	–	–	–
Cc1sc2c(c1C)C(c1ccc(N3CCC4(CC3)CCN(c3ccc(C(=O)N[C@H]5CC[C@H](Oc6ccc(C#N)c(Cl)c6)CC5)nn3)C4)nc1)=NCc1nnc(C)n1-2 [I-449]	> 3000 nM	< 500 nM	> 3000 nM	–	–	–
C#Cc1ccc(O[C@H]2CC[C@H](NC(=O)c3ccc(N4CCC(C5CN(c6ccc(C7=NC8(CC8)c8nnc(C)n8-c8sc(C)c(C)c87)cc6)C5)CC4)nn3)CC2)cc1Cl [I-450]	> 3000 nM	< 500 nM	< 500 nM	–	–	–
